Reference: ChEMBL document CHEMBL1201862, “PubChem BioAssay data set” (2004)
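These data come from cells grown in 96-well plates and exposed to compound for 48 hours at five concentrations. At the GI50, growth is halved.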 Active and inactive are the calls of the source. No stated cut-off is given here; in the data, active = GI50 up to about 1.1 µM and inactive = higher.

Assays:
Test in all cases: NCI anticancer screen, dose series, 48 h
HOP-92 = system: HOP-92
K562 = system: K562
NCI-H460 = system: NCI-H460
U-251 = system: U-251
PC-3 = system: PC-3
CAKI-1 = system: CAKI-1
EKVX = system: EKVX
KM12 = system: KM12
MDA-MB-231 = system: MDA-MB-231
MDA-MB-435 = system: MDA-MB-435
UACC-257 = system: UACC-257
SW-620 = system: SW-620
SK-MEL-28 = system: SK-MEL-28
RPMI-8226 = system: RPMI-8226
T47D = system: T47D
OVCAR-8 = system: OVCAR-8
NCI-H23 = system: NCI-H23
SK-OV-3 = system: SK-OV-3
UO-31 = system: UO-31
Hs-578T = system: Hs-578T

| SMILES | GI50 (HOP-92) | GI50 (K562) | GI50 (NCI-H460) | GI50 (U-251) | GI50 (PC-3) | GI50 (CAKI-1) | GI50 (EKVX) | GI50 (KM12) | GI50 (MDA-MB-231) | GI50 (MDA-MB-435) | GI50 (UACC-257) | GI50 (SW-620) | GI50 (SK-MEL-28) | GI50 (RPMI-8226) | GI50 (T47D) | GI50 (OVCAR-8) | GI50 (NCI-H23) | GI50 (SK-OV-3) | GI50 (UO-31) | GI50 (Hs-578T) |
| --- | --- | --- | --- | --- | --- | --- | --- | --- | --- | --- | --- | --- | --- | --- | --- | --- | --- | --- | --- | --- |
| OCCCNCc1ccccn1 | > 100 µM (inactive) | > 100 µM (inactive) | > 100 µM (inactive) | > 100 µM (inactive) | > 100 µM (inactive) | > 100 µM (inactive) | > 100 µM (inactive) | > 100 µM (inactive) | > 100 µM (inactive) | > 100 µM (inactive) | > 100 µM (inactive) | > 100 µM (inactive) | > 100 µM (inactive) | > 100 µM (inactive) | > 100 µM (inactive) | > 100 µM (inactive) | > 100 µM (inactive) | > 100 µM (inactive) | > 100 µM (inactive) | > 100 µM (inactive) |
| O=C(c1no[n+]([O-])c1C(=O)c1csc2ccccc12)c1csc2ccccc12 | 2.16 µM (inactive) | 1.52 µM (inactive) | 13.2 µM (inactive) | 9.95 µM (inactive) | 3.13 µM (inactive) | 0.82 µM (active) | 3.55 µM (inactive) | 6.95 µM (inactive) | 5.64 µM (inactive) | 8.93 µM (inactive) | 4.92 µM (inactive) | 2.21 µM (inactive) | 4.09 µM (inactive) | 0.521 µM (active) | 5.96 µM (inactive) | 3.09 µM (inactive) | 14.1 µM (inactive) | 16.1 µM (inactive) | 0.505 µM (active) | 10.2 µM (inactive) |
| CC(=O)c1c(SCCN2CCOCC2)n(-c2ccccc2)c(=S)n(-c2ccccc2)c1=O | 15.3 µM (inactive) | 14.1 µM (inactive) | 24.4 µM (inactive) | 31.2 µM (inactive) | 17.3 µM (inactive) | 24.3 µM (inactive) | 48.2 µM (inactive) | > 39.7 µM (inactive) | 19.1 µM (inactive) | 16 µM (inactive) | 15.4 µM (inactive) | 20.7 µM (inactive) | 20.9 µM (inactive) | 8.38 µM (inactive) | 17.6 µM (inactive) | 19.3 µM (inactive) | 27.6 µM (inactive) | > 48.6 µM (inactive) | 14.1 µM (inactive) | 39.7 µM (inactive) |
| O=C(c1ccccc1)c1ccc(N2C(=O)/C(=C/c3ccccc3S)N=C2c2ccccc2)c(N2C(=O)/C(=C/c3ccccc3S)N=C2c2ccccc2)c1 | > 100 µM (inactive) | 48.9 µM (inactive) | 47.6 µM (inactive) | 25.2 µM (inactive) | 42.6 µM (inactive) | > 100 µM (inactive) | > 100 µM (inactive) | 33.3 µM (inactive) | > 100 µM (inactive) | 19.6 µM (inactive) | > 100 µM (inactive) | 43.2 µM (inactive) | > 100 µM (inactive) | 21.9 µM (inactive) | 43.3 µM (inactive) | 27.8 µM (inactive) | – | > 100 µM (inactive) | 84.5 µM (inactive) | 35 µM (inactive) |
| Nc1cccc(/C=C/CN2CCN(CCOC(c3ccccc3)c3ccccc3)CC2)c1 | 12.6 µM (inactive) | 3.11 µM (inactive) | 13.6 µM (inactive) | 14.6 µM (inactive) | 14.8 µM (inactive) | 19.8 µM (inactive) | 16.4 µM (inactive) | 11.2 µM (inactive) | 15 µM (inactive) | 14.3 µM (inactive) | 15.9 µM (inactive) | 15.9 µM (inactive) | 14 µM (inactive) | 3 µM (inactive) | 8 µM (inactive) | 16 µM (inactive) | 16.1 µM (inactive) | 14.1 µM (inactive) | 13.6 µM (inactive) | 21.8 µM (inactive) |
| C1=N/CCNCCNCC/N=C/c2ccccc2OCc2cccc(n2)COc2ccccc2/1 | 71.4 µM (inactive) | 24.7 µM (inactive) | 34.4 µM (inactive) | 26.7 µM (inactive) | 34 µM (inactive) | > 100 µM (inactive) | > 100 µM (inactive) | 48.5 µM (inactive) | 57.9 µM (inactive) | 11.3 µM (inactive) | 53.7 µM (inactive) | 36.2 µM (inactive) | > 100 µM (inactive) | 28.4 µM (inactive) | 57.4 µM (inactive) | 28.6 µM (inactive) | 86.3 µM (inactive) | > 100 µM (inactive) | 72.8 µM (inactive) | 55.3 µM (inactive) |
| C=C(C)C1CC/C(C)=C/CCC2(C)OC2CC/C(CO)=C\C1O (centres undefined) | 7.28 µM (inactive) | 42 µM (inactive) | 42.7 µM (inactive) | 98.4 µM (inactive) | 64.3 µM (inactive) | > 100 µM (inactive) | 91.4 µM (inactive) | > 100 µM (inactive) | > 100 µM (inactive) | 60 µM (inactive) | > 100 µM (inactive) | > 100 µM (inactive) | > 100 µM (inactive) | 42.4 µM (inactive) | > 100 µM (inactive) | > 100 µM (inactive) | > 100 µM (inactive) | > 100 µM (inactive) | > 100 µM (inactive) | 15.7 µM (inactive) |
| Cc1cc2c(c(O)c1-c1c(C)cc(O)c3c1C(=O)C=CC3=O)C(=O)C=CC2=O | 0.413 µM (active) | 0.0337 µM (active) | 6.43 µM (inactive) | 4.03 µM (inactive) | 4.02 µM (inactive) | 0.631 µM (active) | 1.59 µM (inactive) | 10.3 µM (inactive) | 2 µM (inactive) | 1.95 µM (inactive) | 1.62 µM (inactive) | 1.59 µM (inactive) | 0.369 µM (active) | 0.226 µM (active) | 1.34 µM (inactive) | 1.95 µM (inactive) | 3.05 µM (inactive) | 15.6 µM (inactive) | 1.63 µM (inactive) | 3.07 µM (inactive) |
| C=CCSC1=N/C(=C\c2ccc(C)cc2)C(=O)N1CC=C | 11.7 µM (inactive) | 10.4 µM (inactive) | 34.3 µM (inactive) | 22.7 µM (inactive) | 22.2 µM (inactive) | 80 µM (inactive) | 10.1 µM (inactive) | 23.7 µM (inactive) | 90.4 µM (inactive) | 25.9 µM (inactive) | 25.6 µM (inactive) | 32.4 µM (inactive) | 45.7 µM (inactive) | 13.9 µM (inactive) | 25.9 µM (inactive) | 24.8 µM (inactive) | 32.7 µM (inactive) | 63.4 µM (inactive) | 22.9 µM (inactive) | 54.8 µM (inactive) |
| Oc1ccc(-c2nc3ccccc3s2)cc1 | 35.9 µM (inactive) | 29 µM (inactive) | 38.1 µM (inactive) | 42.4 µM (inactive) | 32.1 µM (inactive) | 29.2 µM (inactive) | 21.5 µM (inactive) | 21.1 µM (inactive) | 29.2 µM (inactive) | 37.2 µM (inactive) | 31 µM (inactive) | 65.5 µM (inactive) | 53.3 µM (inactive) | 27.1 µM (inactive) | 21.5 µM (inactive) | 30.6 µM (inactive) | 25.2 µM (inactive) | 32.1 µM (inactive) | 51.5 µM (inactive) | 37.7 µM (inactive) |
